Reference: US12053480B2, “Methods and pharmaceutical compositions for treating peripheral demyelinating diseases” (INSERM (INSTITUT NATIONAL DE LA SANTE ET DE LA RECHERCHE …, priority 2015, dated 2024)

Legend:
VDAC1 [1] = molecular target: T1, VDAC1 (Mus musculus, UniProt Q60932); test: Mitochondrial calcium imaging (mito-GCaMP2, multiphoton) in mSC of mouse sciatic nerve, nerve crush model; type: in vivo; conditions: for mSC mitochondria calcium concentration: non-crushed nerves, two hours after injections, compared to vehicle injection; for mitochondrial calcium release in mSC after nerve crush: mito-GCaMP2, VDAC1 silenced or drug given before crush
T1 construct: strongly expressed in mSC mitochondria; from tissue; host or cells: myelinating Schwann cells (mSC) of the sciatic nerve of living mice (wild type; db/db and +/db in A10)
Procedure: (§1) Mice were anesthetized with isoflurane inhalation and placed under a Stemi2000 microscope (Zeiss). Incision area was shaved and cleaned using betadine solution. After incision, the gluteus superficialis and biceps femoris muscles were separated to reveal the cavity traversed by the sciatic nerve. The nerve was lift out using spatula and a thin glass needle filled with viral solution (8 μl) was introduced into the nerve with a micromanipulator. This solution was injected over 30 min with short pressure pulses using a Picospritzer III (Parker Hannifin) coupled to a pulse generator. After injection, the nerve was replaced into the cavity, the muscles were readjusted, and the wound was closed using clips (for further details see Gonzalez et al., 2014^3).
(§2) TRO19622 drug (Tocris bioscience, Ref. 2906) was diluted in ethanol to 20 mM and then, the solution was diluted in sterile PBS to 20 μM. TRO19622 treatments were realized by 3 mg/kg intraperitoneal (IP) injections of 20 mM solution or by intra sciatic nerve injections of 2 μl of drug solution 2 μM using a Hamilton syringe or a glass needle in sterile conditions 30 minutes before multiphoton image acquisitions or immunohistochemistry and demyelination studies respectively. Methyl jasmonate drug (Sigma-Aldrich, Ref. 392707) was diluted in 1 ml of sterile PBS to 1M or 3M. Methyl jasmonate treatments were realized by intra sciatic nerve injections of 1 μl of drug solution using a glass needle and micromanipulator in sterile conditions following the same virus injections procedure (see in vivo virus injection in the sciatic nerve method) two hours before multiphoton image acquisition. […] All drug concentrations were previously evaluated by Bordet et al, 2007^5; Goldin et al, 2008^6; Sharov et al, 2007^7.
(§3) First injected mouse was anesthetized with 5% of isoflurane a 1.5% of oxygen into the anesthesia system box (World Precision Instruments, Ref. EZ-B800) for 5 minutes. Anesthesia controls were realized^8. Then, mouse was placed in anesthesia mask and the incision area was shaved and cleaned with betadine and ethanol 70% solution. Incision was realized using a scalpel and the skin was retracted using forceps in order to expose the gluteus superficialis and bleeps femoris muscles. Next, the connective tissue that connects both muscles was cut and the sciatic nerve was gently lifted out using a spatula. A flexible bridge was slide below sciatic nerve and it was placed into a plastic first pool fixed to the bridge. Mouse was placed under the multiphoton microscope, the bridge was fixed using magnetic brackets to avoid physiological movement and mouse legs were fixed using clippers. Microscope dark box temperature is controlled to 37° C. during all time-lapse imaging. Finally, a second pool was fixed to the first pool using a drop of agarose low melting 3% (Promega, Ref. V2111) in Leibovitz's L15 medium (Gibco Life Technologies) and filled with deionized water to immerse the objectives 20× or 63× (Carl Zeiss Microscopy).
(§4) All time-lapse images were obtained with a multiphoton microscope Zeiss LSM 7 MP OPO. Mitochondria motility images were acquired by time-lapse recording of one image every five minutes during five hours at 920 nm. GCaMP2 and SypHer probe images were acquired by time-lapse recording of one image every fifteen minutes during five hours at 985 nm. Images were acquired to constant 1% of laser intensity to 100 msec of acquisition time with 512×512 resolution and 10 images of z-stack of 20 μm. Images were saved in Zeiss .czi format and processed using Image J program. For further details see Gonzalez et al., 201X^8
(§5) To characterize mitochondria physiology during the demyelination process we combined two in vivo methods. We used the nerve crush model to reliably induce demyelination in the mouse sciatic nerve and a viral approach^19 allowing the expression of different fluorescent probes selectively into mitochondria of myelinating Schwann cells (mSC) in mouse sciatic nerve.

VDAC1 [2] = molecular target: T1, VDAC1; test: Cytoplasmic calcium imaging (GCaMP2, multiphoton) in mSC of mouse sciatic nerve; type: in vivo; conditions: for presence of cytoplasmic calcium in mSC after crush: cytoplasmic GCaMP2, after nerve crush
Procedure: as §1, §2, §3, §4
as §5, with “nerve. […]” for “nerve.”

mSC mitochondria [3] = test: Mitochondrial pH imaging (mito-SypHer) in mSC of mouse sciatic nerve; type: in vivo
Procedure: as §1, §2
First injected mouse was anesthetized with 5% of isoflurane a 1.5% of oxygen into the anesthesia system box (World Precision Instruments, Ref. EZ-B800) for 5 minutes. Anesthesia controls were realized^8. Then, mouse was placed in anesthesia mask and the incision area was shaved and cleaned with betadine and ethanol 70% solution. […]

mSC mitochondria [4] = test: Mitochondrial motility imaging (mito-dsRed2) in mSC of mouse sciatic nerve; type: in vivo; conditions: for loss of mitochondrial motility after nerve crush: 5 hours after nerve injury, TRO19622 30 minutes before crush
Procedure: as §1, §2, §3
as §4, with “Images were saved in Zeiss .czi format and processed using Image J program. For further details see Gonzalez et al., 201X^8” left out

[5] = system: phospho-ERK1/2, phospho-p38, phospho-JNK and phospho-c-jun; test: Western blot of demyelination signaling pathways in sciatic nerve after crush or MJ; type: in vivo, mouse; conditions: nerves not crushed; 4 or 12 hours after treatment
Procedure: as §2

phospho-c-jun = test: Immunohistochemistry of nuclear phospho-c-jun in mSC after nerve crush or MJ; type: in vivo, mouse; conditions: for nuclear phospho-c-jun in mSC after nerve crush: immunohistochemistry, TRO19622 30 minutes prior crush
Procedure: The dissected nerve was washed in L15 medium, fixed in Zamboni's fixative (Stefanini et al., 1967^4) for 10 min at room temperature, washed in PBS, and incubated in successive glycerol baths (15, 45, 60, 66% in PBS) for 18 to 24 h each before freezing at −20° C. The nerves were cut in small pieces in 66% glycerol and the perineurium sheet removed. Small bundles of fibers were teased in double-distilled water on Superfrost slides, dried overnight at room temperature, and the slides stored at −20° C. For immunostaining, the teased fibers were incubated for 1 h at room temperature in blocking solution (10% goat serum, 0.2% TritonX100, and 0.01% sodium azide in PBS). Then, the samples were then incubated with anti-ECCD2 primary mouse antibody (1/100, BD biosciences, Ref. 610181), anti-phosphoS63-c-jun primary mouse antibody (1/200, BD Biosciences, Ref. 558036), anti-c-jun primary mouse antibody (1/200, BD Biosciences, Ref. 610326), anti-VDAC primary rabbit antibody (1/100, Cell Signaling, Ref. 4866) or/and MitoTracker Red (1/1000, Molecular Probes, Ref. M7515) in blocking solution overnight at 4° C. The next day, the samples were washed in PBS and incubated for 1 h at room temperature with secondary donkey antibodies coupled to Alexa488, Alexa 594 or Alexa647 (1/1600, Molecular probes) and TO-PRO-3 iodide (50 μM, Invitroge, Ref. T3605). Finally the samples were washed in PBS and mounted in Immu-mount (Thermo Scientific). Images were acquired at room temperature using a 20× or 40× objective, a Zeiss confocal microscope LSM710, and its associated software.
as §2
To go further we also selectively silenced VDAC1 in mSC and measured the expression level of nuclear phospho-c-jun by immunohistochemistry after nerve crush. […]

[6] = system: myelinating Schwann cells; test: mSC demyelination morphology (confocal microscopy) four days after nerve crush; type: in vivo, mouse; conditions: for number of myelinating cell remaining after crush: four days after crush
Procedure: as §1, §2
Finally we also investigated the demyelination using typical defects induced in the cellular morphology of mSC. Nerves expressing control or VDAC1 shRNAs were crushed to induce demyelination and four days later, when demyelination is maximal, we analyzed the morphology of VDAC1-silenced mSC using confocal microscopy as described previously^19. mSC display long homogenous noodle-like morphology with a regular diameter but during demyelination, they acquire a heterogeneous morphology often alterning large structures (myelin ovoids) with thin processes and their extremities split in fine extensions.

[7] = system: phospho-bcl2, cleaved caspase-3; conditions: after MJ treatment
Procedure: To investigate the signaling pathways induced by mitochondrial calcium release, sciatic nerves were treated with vehicle or TRO19622 before crush or with MJ without crush and phosphorylation-activated pathways were determined by western blot 4 hours or 12 hours after nerve crush or MJ treatment. […] While it is known that SC demyelination is not due to cell death but to a dedifferentiation process, we nevertheless checked mitochondria-related cell death factors in crushed or MJ treated nerves.

T1 sequence (Q60932 14-296): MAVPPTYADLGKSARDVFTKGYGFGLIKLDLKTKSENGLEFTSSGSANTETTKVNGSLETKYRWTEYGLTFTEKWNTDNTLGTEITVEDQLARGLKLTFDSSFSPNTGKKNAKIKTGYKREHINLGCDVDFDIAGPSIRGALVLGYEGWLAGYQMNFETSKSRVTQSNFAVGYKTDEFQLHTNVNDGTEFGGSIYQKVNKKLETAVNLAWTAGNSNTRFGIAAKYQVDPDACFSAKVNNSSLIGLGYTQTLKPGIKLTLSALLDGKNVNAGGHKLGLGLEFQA

Row | Molecule | mSC mitochondria calcium concentration (VDAC1 [1]) | mSC mitochondria calcium concentration (VDAC1 [1]; listed as methyl jasmonate) | calcium presence in the cytoplasm (VDAC1 [2]; MJ treatment, non-crushed nerves) | mitochondrial pH (mSC mitochondria [3]; non-crushed nerves) | mitochondrial motility (mSC mitochondria [4]; without crush) | phosphorylation-activated pathways and phospho-c-jun [5] | nuclear phospho-c-jun (phospho-c-jun; nerves treated with MJ) | number of demyelinating cells ([6]; non-crushed sciatic nerves) | phospho-bcl2 and cleaved caspase-3 levels [7] | mitochondrial calcium release in mSC after nerve crush (VDAC1 [1]) | presence of cytoplasmic calcium in mSC after crush (VDAC1 [2]) | loss of mitochondrial motility after nerve crush (mSC mitochondria [4]) | nuclear phospho-c-jun in mSC after nerve crush (phospho-c-jun) | number of myelinating cell remaining after crush [6] | mitochondrial calcium release in mSC after nerve crush (VDAC1 [1]; listed as VDAC shRNA3) | part of the calcium appearing in the cytoplasm after nerve crush that is not abolished (non-mitochondrial origin) (VDAC1 [2]; after nerve crush with VDAC1 silenced or blocked) [%] | changes induced by nerve crush in mitochondrial pH not abrogated (mSC mitochondria [3]; after nerve crush) [%] | changes induced by nerve crush in mitochondrial motility not abrogated (mSC mitochondria [4]; after nerve crush) [%]
1 | CC/C=C\CC1C(=O)CCC1CC(=O)OC (centres unmarked) [MJ, methyl jasmonate] | sharply decreased | induced mitochondrial calcium release | increased | increase | decreased | significant increase | robust increase | significant increase | Neither phospho-bcl2 nor cleaved caspase-3 levels were increased |  |  |  |  |  |  |  |  | 
2 | VDAC1 shRNA2: VDAC1 shRNA sequence 2 GTTGGCTATAAGACGGATGAACT (Sigma-Aldrich, Ref. #TRCN0000012391), expressed from AAV vector (expressed from AAV vector) |  |  |  |  |  |  |  |  |  | significantly reduced | more modest | significantly prevented | strong reduction | significant increase |  |  |  | 
3 | VDAC1 shRNA3: VDAC1 shRNA sequence 3 ACCAGGTATCAAACTGACGTTCT (Sigma-Aldrich, Ref. #TRCN0000012392), expressed from AAV vector (expressed from AAV vector) |  |  |  |  |  |  |  |  |  | completely inhibited | strongly reduced | significantly prevented | strong reduction | significant increase | completely abolished | 13 | 12 | 20
